Results from PubChem BioAssay (NCI).
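1) Cells in 96-well plates. 2) Compound, 48 h, 5 concentrations. 3) Linear interpolation between surrounding doses. 4) Unreached endpoint = highest concentration. Definition used: TGI = concentration required for complete inhibition of growth.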

Legend:
Test in all cases: NCI anticancer screen, dose series, 48 h
[1] = test system: TK-10 renal
[2] = test system: SN12C renal
[3] = test system: EKVX NSCLC
[4] = test system: RPMI-8226 leukemia
[5] = test system: OVCAR-3 ovarian
[6] = test system: UACC-62 melanoma
[7] = test system: SF-295 CNS
[8] = test system: SNB-75 CNS
[9] = test system: NCI-H23 lung
[10] = test system: OVCAR-4 ovarian
[11] = test system: HCT-15 colon
[12] = test system: LOX IMVI melanoma
[13] = test system: HCT-116 colon
[14] = test system: A549 NSCLC
[15] = test system: MALME-3M melanoma
[16] = test system: HCC-2998 colon

Row | SMILES | TGI [1] [µM] | TGI [2] [µM] | TGI [3] [µM] | TGI [4] [µM] | TGI [5] [µM] | TGI [6] [µM] | TGI [7] [µM] | TGI [8] [µM] | TGI [9] [µM] | TGI [10] [µM] | TGI [11] [µM] | TGI [12] [µM] | TGI [13] [µM] | TGI [14] [µM] | TGI [15] [µM] | TGI [16] [µM]
1 | Cc1cccc2sc(-c3ccc(O)cc3)nc12 | 42.1 | 34.3 | 16.8 | 44.2 | 29.8 | 30.1 | 29.1 | 26.2 | 31.9 | 29.5 | 26 | 49.6 | 28.9 | 34.8 | 32.8 | –
2 | O=C(N/N=C/c1cc(Br)cc(Br)c1[O-])c1ccccc1O.O=C(N/N=C/c1cc(Br)cc(Br)c1[O-])c1ccccc1O.[Zn+2] | 15 | – | 10.9 | – | 0.742 | 2.34 | 5.28 | 18.8 | 3.17 | 1.5 | 14.4 | 13.7 | 13 | 21.6 | 8.77 | 3.42
3 | CCCCCCCCCOCC(COP(=O)([O-])OCC[N+](C)(C)C)OC (configuration not stated) | – | > 100 | > 100 | > 100 | > 100 | > 100 | > 100 | > 100 | > 100 | > 100 | > 100 | > 100 | > 100 | > 100 | > 100 | > 100
4 | NC1CCC(N(CC(=O)O)CC(=O)O)C(N(CC(=O)O)CC(=O)O)C1 (configuration not stated) | > 100 | > 100 | – | > 100 | > 100 | > 100 | > 100 | > 100 | > 100 | > 100 | > 100 | > 100 | > 100 | > 100 | > 100 | > 100
5 | CCOC(=O)/C(=N/Nc1ccccc1)N1C(=S)C=C(C)NN(C)C1=S | > 100 | > 100 | > 100 | > 100 | > 100 | > 100 | 84.9 | – | > 100 | > 100 | > 100 | – | > 100 | > 100 | – | > 100
